According to publication PMC7611903, “DYW domain structures imply an unusual regulation principle in plant organellar RNA editing catalysis” (Nature catalysis, 2021):
Numbering of substitutions follows the chain as printed.

Columns and labels:
OTP86^DYW [1] = molecular target: T1, OTP86^DYW (Arabidopsis thaliana, UniProt Q9M1V3); assay: differential scanning fluorimetry (SYPRO orange); format: binding; conditions: 20 mM Tris pH 7.5, 150 mM NaCl, destabilizing
T1 construct: gene PCMP-H83; isolated DYW domain, residues 826-960; N-terminal Strep-tag cut by TEV, GAM left; E. coli Rosetta2 (DE3); about 15 kDa, monomer
T1 sequence (Q9M1V3 826-960): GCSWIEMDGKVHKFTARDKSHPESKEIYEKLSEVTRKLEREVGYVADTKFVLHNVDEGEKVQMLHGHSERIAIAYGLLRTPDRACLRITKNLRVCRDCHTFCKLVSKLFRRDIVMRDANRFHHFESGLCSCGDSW

OTP86^DYW [2] = molecular target: T2, OTP86^DYW (Arabidopsis thaliana, UniProt Q9M1V3, H892C); assay: differential scanning fluorimetry (SYPRO orange); format: binding; conditions: 20 mM Tris pH 7.5, 150 mM NaCl; destabilizing
T2 construct: gene PCMP-H83; isolated DYW domain, residues 826-960; N-terminal Strep-tag cut by TEV, GAM left; E. coli Rosetta2 (DE3); about 15 kDa, monomer
T2 sequence (Q9M1V3 826-960 H892C): T1 sequence (Q9M1V3 826-960) with H67C

OTP86^DYW [3] = molecular target: T3, OTP86^DYW (Arabidopsis thaliana, UniProt Q9M1V3, L917A); assay: differential scanning fluorimetry (SYPRO orange); format: binding; conditions: 20 mM Tris pH 7.5, 150 mM NaCl; destabilizing
T3 construct: gene PCMP-H83; isolated DYW domain, residues 826-960; N-terminal Strep-tag cut by TEV, GAM left; E. coli Rosetta2 (DE3); about 15 kDa, monomer
T3 sequence (Q9M1V3 826-960 L917A): T1 sequence (Q9M1V3 826-960) with L92A

PPR56 = molecular target: T4, PPR56 (Physcomitrium patens, UniProt A0A2K1IWP1); assay: in vitro C-to-U RNA editing, RT-PCR sequencing; format: biochemical; conditions: nad4 RNA substrate, pH 7.5, 16 °C, activator
T4 construct: gene LOC112295756; recombinant from pETG41K::PPR56 (His-MBP fusion), amylose-purified from E. coli; tag kept; PPR tract, E1, E2 and DYW domain
T4 sequence (A0A2K1IWP1 entry or part of it): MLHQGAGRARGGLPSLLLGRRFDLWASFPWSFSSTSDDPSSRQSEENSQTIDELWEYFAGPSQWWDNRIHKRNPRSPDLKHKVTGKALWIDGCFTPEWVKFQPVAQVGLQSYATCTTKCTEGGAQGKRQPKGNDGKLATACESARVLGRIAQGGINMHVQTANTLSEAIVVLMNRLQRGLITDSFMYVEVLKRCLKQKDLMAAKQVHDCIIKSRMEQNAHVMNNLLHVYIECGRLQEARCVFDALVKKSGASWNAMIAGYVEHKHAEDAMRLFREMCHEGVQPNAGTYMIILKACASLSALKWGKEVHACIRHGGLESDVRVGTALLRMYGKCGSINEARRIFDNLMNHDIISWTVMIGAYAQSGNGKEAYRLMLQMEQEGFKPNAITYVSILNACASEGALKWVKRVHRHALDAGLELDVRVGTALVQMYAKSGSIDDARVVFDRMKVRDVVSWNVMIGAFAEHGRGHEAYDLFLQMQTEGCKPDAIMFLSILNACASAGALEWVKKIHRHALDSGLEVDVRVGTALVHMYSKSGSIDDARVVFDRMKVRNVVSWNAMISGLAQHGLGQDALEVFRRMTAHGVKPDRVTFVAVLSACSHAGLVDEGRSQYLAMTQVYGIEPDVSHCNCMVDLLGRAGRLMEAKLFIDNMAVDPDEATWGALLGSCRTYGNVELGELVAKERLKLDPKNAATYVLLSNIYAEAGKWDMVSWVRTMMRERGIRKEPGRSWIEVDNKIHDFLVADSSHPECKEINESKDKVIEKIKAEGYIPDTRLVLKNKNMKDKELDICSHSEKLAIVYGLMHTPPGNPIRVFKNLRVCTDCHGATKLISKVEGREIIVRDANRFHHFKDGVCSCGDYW

OTP86^DYW [4] = molecular target: T5, OTP86^DYW (Arabidopsis thaliana, UniProt Q9M1V3, K915A); assay: differential scanning fluorimetry (SYPRO orange); format: binding; conditions: 20 mM Tris pH 7.5, 150 mM NaCl; destabilizing
T5 construct: gene PCMP-H83; isolated DYW domain, residues 826-960; N-terminal Strep-tag cut by TEV, GAM left; E. coli Rosetta2 (DE3); about 15 kDa, monomer
T5 sequence (Q9M1V3 826-960 K915A): T1 sequence (Q9M1V3 826-960) with K90A

Structure (SMILES) | Tm (OTP86^DYW [2]) | Tm (OTP86^DYW [3]) | in vitro C-to-U RNA editing, RT-PCR sequencing (PPR56) | other results
Nc1ncnc2c1ncn2[C@@H]1O[C@H](COP(=O)(O)OP(=O)(O)CP(=O)(O)O)[C@@H](O)[C@H]1O [AMPPCP] |  |  |  | Tm (OTP86^DYW [1]; non-hydrolysable ATP analogue): 68 °C
Nc1ncnc2c1ncn2[C@@H]1O[C@H](COP(=O)(O)OP(=O)(O)OP(=O)(O)O)[C@@H](O)[C@H]1O [ATP] | we assessed the T m of H892C in the presence of the activators | a milder effect with ATP comparable to wild type was observed |  | in vitro C-to-U RNA editing, RT-PCR sequencing (PPR56; may be allosteric): ATP activates PPR56 and PPR56^PPRE1E2–OTP86^DYW in a concentration-dependent fashion; Tm (OTP86^DYW [1]; 2 mM ATP, reversible, activator): 65 °C
Nc1nc2c(ncn2[C@@H]2O[C@H](COP(=O)(O)OP(=O)(O)OP(=O)(O)O)[C@@H](O)[C@H]2O)c(=O)[nH]1 [GTP] |  |  | GTP also activate both PPR proteins in a concentration-dependent manner | Tm (OTP86^DYW [1]; 2 mM GTP, reversible, activator): 65.3 °C
O=C1NC(O)CCN1[C@@H]1O[C@H](CO)[C@@H](O)[C@H]1O (stereo partly drawn) [tetrahydrouridine] | The H892C mutant closely resembles the wild-type protein regarding activation, albeit less pronounced | The L917A mutation showed a prominent decrease in T m when THU was added | THU increases deaminase activity markedly for both proteins in a concentration-dependent manner | Tm (OTP86^DYW [1]; reversible, activator): 60 °C; Tm (OTP86^DYW [4]): this effect is less severe with the K915A mutation
